According to ChEMBL document CHEMBL1130730, “Immunomodulatory activity of thunberginol A and related compounds isolated from Hydrangeae Dulcis Folium on splenocyte proliferation activated by mitogens” (Bioorg Med Chem Lett, 1998):
Calls of active or inactive are those of the source. The rule behind the calls is not given here.

Tests used:
Mus musculus [1] = organism: Mus musculus; assay: Tested for inhibitory activity against B lymphocyte proliferation induced by LPS at 10e-7 M; suppressed the proliferation; format: functional
Mus musculus [2] = organism: Mus musculus; assay: Tested for inhibitory activity against T lymphocyte proliferation induced by Con A at 10e-7 M; showed potent suppressive effect; format: functional
Mus musculus [3] = organism: Mus musculus; assay: Tested for inhibitory activity against T lymphocyte proliferation induced by PHA at 10e-7 M; showed potent suppressive effect; format: functional
Mus musculus [4] = organism: Mus musculus; assay: Tested for inhibitory activity against T lymphocyte proliferation induced by PHA; showed no suppressive effect; format: functional
Mus musculus [5] = organism: Mus musculus; assay: Tested for inhibitory activity against B lymphocyte proliferation induced by LPS at 10e-5 M; significantly potentiated the proliferation; format: functional
Mus musculus [6] = organism: Mus musculus; assay: Tested for inhibitory activity against T lymphocyte proliferation induced by Con A at 10e-5 M; slightly suppressed the proliferation; format: functional
Mus musculus [7] = assay: Tested for inhibitory activity against contact ear dermatitis in mice induced by dinitrofluorobenzene by consecutive oral administration in the primary sensitizing phase; showed inhibition; format: functional, organism-based
Mus musculus [8] = organism: Mus musculus; assay: Tested for inhibitory activity against T lymphocyte proliferation induced by Con A at 10e-6 to 10e-5 M; significantly suppressed the proliferation; format: functional
Mus musculus [9] = assay: Tested for inhibitory activity against hind paw edema sensitized with sheep red blood cells (SRBC) in both sensitizing and inflammatory phases after oral administration; showed reduction
Rattus norvegicus [10] = assay: Tested for in vivo inhibitory activity against asthmatic bronchoconstriction in rats induced by antigen-antibody reaction; showed inhibition; format: functional, organism-based
Rattus norvegicus [11] = assay: Tested for in vivo inhibitory activity against passive cutaneous anaphylaxis (PCA) reaction in rats; showed inhibition; format: functional, organism-based
Mus musculus [12] = organism: Mus musculus; assay: Tested for inhibitory activity against B lymphocyte proliferation induced by LPS at 10e-5 M; significantly suppressed the proliferation; format: functional
Rattus norvegicus [13] = assay: Tested for […] inhibitory activity against type 1 allergic reactions after oral administration; showed inhibition; format: functional, organism-based

## C[C@]12CCC(=O)C=C1CCC1[C@@H]2[C@@H](O)C[C@@]2(C)[C@H]1CC[C@]2(O)C(=O)CO (single isomer, unassigned)
Mus musculus [1]
  Activity: Active
Mus musculus [2]
  Activity: Active
Mus musculus [3]
  Activity: Active

## O=C1OC(c2ccc(O)cc2)Cc2cccc(O)c21 (stereo not drawn)
Mus musculus [4]
  Activity: no suppressive effect
Mus musculus [5]
  Activity: no suppressive effect

## O=C1OC(c2ccc(O)c(O)c2)Cc2cc(O)cc(O)c21 (stereo not drawn)
Mus musculus [6]
  Activity: no suppressive effect
Mus musculus [4]
  Activity: no suppressive effect
Mus musculus [5]
  Activity: no suppressive effect

## O=C1O/C(=C\c2ccc(O)c(O)c2)c2cccc(O)c21
Mus musculus [4]
  Activity: no suppressive effect
Mus musculus [5]
  Activity: no suppressive effect

## COc1ccc([C@H]2Cc3cccc(O)c3C(=O)O2)cc1O
Mus musculus [6]
  Activity: significantly potentiated the proliferation
Mus musculus [5]
  Activity: significantly potentiated the proliferation

## O=c1oc(-c2ccc(O)cc2)cc2cccc(O)c12
Mus musculus [4]
  Activity: no suppressive effect
Mus musculus [5]
  Activity: no suppressive effect

## O=c1oc(-c2ccc(O)c(O)c2)cc2cc(O)cc(O)c12
Mus musculus [4]
  Activity: no suppressive effect
Mus musculus [5]
  Activity: no suppressive effect

## O=C1OC(c2ccc(O)cc2)Cc2cc(O)cc(O)c21 (stereo not drawn)
Mus musculus [6]
  Activity: no suppressive effect
Mus musculus [4]
  Activity: no suppressive effect
Mus musculus [5]
  Activity: no suppressive effect

## COc1ccc([C@H]2Cc3cc(O)cc(O)c3C(=O)O2)cc1O
Mus musculus [6]
  Activity: significantly potentiated the proliferation
Mus musculus [5]
  Activity: significantly potentiated the proliferation

## O=c1oc(-c2ccc(O)c(O)c2)cc2cccc(O)c12
Mus musculus [7]
  Activity: inhibition
Mus musculus [8]
  Activity: inhibition
Mus musculus [9]
  Activity: inhibition
Rattus norvegicus [10]
  Activity: inhibition
Rattus norvegicus [11]
  Activity: inhibition
Mus musculus [12]
  Activity: inhibition
Rattus norvegicus [13]
  Activity: inhibition

## O=C(O)c1c(O)cccc1/C=C/c1ccc(O)c(O)c1
Mus musculus [4]
  Activity: no suppressive effect
Mus musculus [5]
  Activity: no suppressive effect

## O=C1OC(c2ccc(O)c(O)c2)Cc2cccc(O)c21 (stereo not drawn)
Mus musculus [6]
  Activity: no suppressive effect
Mus musculus [4]
  Activity: no suppressive effect
Mus musculus [5]
  Activity: no suppressive effect
